Experimental data published in patent US20230087118A1, “IMIDAZO[1,2-a][sequence] DERIVATIVES AND THEIR USE IN THE TREATMENT OF DISEASE” (priority 2019, published 2023).
Structures can show the parent of a compound that is named as a salt.

biological target: T1, IRAK4 (Homo sapiens, UniProt Q9NWZ3); test: biochemical; details: not given
T1 sequence (Q9NWZ3 1-460): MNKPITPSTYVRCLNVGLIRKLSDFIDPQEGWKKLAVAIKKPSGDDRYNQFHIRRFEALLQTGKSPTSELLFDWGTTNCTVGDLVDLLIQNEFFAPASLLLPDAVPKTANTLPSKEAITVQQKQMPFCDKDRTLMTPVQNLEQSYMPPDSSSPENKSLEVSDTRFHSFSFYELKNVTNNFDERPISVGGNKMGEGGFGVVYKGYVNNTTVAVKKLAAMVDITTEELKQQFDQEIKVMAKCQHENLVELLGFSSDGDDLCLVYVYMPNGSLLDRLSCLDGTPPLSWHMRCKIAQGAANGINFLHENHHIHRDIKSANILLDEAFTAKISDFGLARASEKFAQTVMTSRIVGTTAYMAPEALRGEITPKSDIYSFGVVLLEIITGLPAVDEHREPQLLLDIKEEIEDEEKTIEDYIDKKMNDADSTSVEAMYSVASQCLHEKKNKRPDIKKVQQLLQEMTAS

Structure (SMILES)	IC50 [µM]
CC12CC(c3cn4cc(C(=O)Nc5ccn(CC(F)F)n5)c(OC5CCC5)cc4n3)(CO1)C2 [Example 530, 7-Cyclobutoxy-N-(1-(2,2-difluoroethyl)-1H-pyrazol-3-yl)-2-(1-methyl-2-oxabicyclo[2.1.1]hexan-4-yl)imidazo[1,2-a]pyridine-6-carboxamide]	0.0056
CC(C)COc1cc2nc(C34COC(C)(C3)C4)cn2cc1C(=O)Nc1cccn(C(F)F)c1=O [Example 453, N-(1-(difluoromethyl)-2-oxo-1,2-dihydropyridin-3-yl)-7-isobutoxy-2-(1-methyl-2-oxabicyclo[2.1.1]hexan-4-yl)imidazo[1,2-a]pyridine-6-carboxamide]	0.0007
COC12CC(c3cn4cc(C(=O)Nc5cccc(C(F)F)n5)c(OC(C)C)cc4n3)(C1)C2 [Example 227]	0.0003
COc1ncccc1NC(=O)c1cn2cc(C34COC(C)(C3)C4)nc2c(OC)n1 [Example 232]	0.0031
Cc1ccn2ncc(NC(=O)c3cn4cc(C56COC(C)(C5)C6)nc4nc3OC(C)C)c2n1 [Example 374, 7-Isopropoxy-2-(1-methyl-2-oxabicyclo[2.1.1]hexan-4-yl)-N-(5-methyl-pyrazolo[1,5-a]pyrimidin-3-yl)imidazo[1,2-a]pyrimidine-6-carboxamide]	0.0014
COc1cccc(NC(=O)c2cn3cc(C4CCOCC4)nc3cc2OC(C)C)n1 [Example 93, 7-isopropoxy-N-(6-methoxypyridin-2-yl)-2-(tetrahydro-2H-pyran-4-yl)imidazo[1,2-a]pyridine-6-carboxamide]	0.0002
COc1cc2nc(C3CCOCC3)cn2cc1C(=O)Nc1cccc(C)n1 [Example 116]	0.0106
CC12CC(c3cn4cc(C(=O)Nc5ccn(C6CCC6)n5)c(OC5CCC5)cc4n3)(CO1)C2 [Example 524, 7-Cyclobutoxy-N-(1-cyclobutyl-1H-pyrazol-3-yl)-2-(1-methyl-2-oxabicyclo[2.1.1]hexan-4-yl)imidazo[1,2-a]pyridine-6-carboxamide]	0.0111
CC(C)Oc1c(C(=O)Nc2cnn3cccnc23)cn2cc(C34COC(C)(C3)C4)nc2c1F [Example 302, 8-Fluoro-7-isopropoxy-2-(1-methyl-2-oxabicyclo[2.1.1]hexan-4-yl)-N-(pyrazolo[1,5-a]pyrimidin-3-yl)imidazo[1,2-a]pyridine-6-carboxamide]	0.0077
CC(C)Oc1nc(C(=O)Nc2ccn(C)n2)cn2cc(C34CCC(C)(C3)OC4)nc12 (centres unmarked) [Example 240]	0.0023
CC(C)Oc1cc2nc(C34COC(C)(C3)C4)cn2cc1C(=O)Nc1cccc2ccnn12 [Example 221]	0.0006
CC12CC(c3cn4cc(C(=O)Nc5ccn(CC6CC6)n5)c(OC5CCC5)cc4n3)(CO1)C2 [Example 525, 7-Cyclobutoxy-N-(1-(cyclopropylmethyl)-1H-pyrazol-3-yl)-2-(1-methyl-2-oxabicyclo[2.1.1]hexan-4-yl)imidazo[1,2-a]pyridine-6-carboxamide]	0.0185
CC(C)Oc1cc2nc(C34CCC(C)(C3)OC4)cn2cc1C(=O)Nc1cccc(C(F)(F)F)c1F (centres unmarked) [Example 502, N-(2-fluoro-3-(trifluoromethyl)phenyl)-7-isopropoxy-2-(1-methyl-2-oxabicyclo[2.2.1]heptan-4-yl)imidazo[1,2-a]pyridine-6-carboxamide]	0.0004
COc1ncccc1NC(=O)c1cn2cc(C34CCC(C)(C3)OC4)nc2c(OC(C)C)n1 (centres unmarked) [Example 239]	0.0008
CCOc1cc(C(=O)Nc2cccc(C(F)F)n2)cn2cc([C@H]3CCCOC3)nc12 (single isomer, unassigned) [Example 55]	0.0135
COc1ncccc1NC(=O)c1cn2cc(C34CCC(C3)OC4)nc2cc1OC(C)C (centres unmarked) [Example 249]	0.0007
CC(C)Oc1nc2nc(C34COC(CF)(C3)C4)cn2cc1C(=O)Nc1cccc(C(F)F)n1 [Example 564, N-(6-(difluoromethyl)pyridin-2-yl)-2-(1-(fluoromethyl)-2-oxabicyclo[2.1.1]hexan-4-yl)-7-isopropoxyimidazo[1,2-a]pyrimidine-6-carboxamide]	0.0003

Structure (SMILES)	IC50 [µM]
CC(C)Oc1nc2nc([C@]34CC[C@](C)(C3)OC4)cn2cc1C(=O)Nc1cccn(C)c1=O (single isomer, unassigned) [Example 653]	0.0011
CCOc1nc(C(=O)Nc2cccc(C3CC3)n2)cn2cc(C34COC(C)(C3)C4)nc12 [Example 493, N-(6-cyclopropylpyridin-2-yl)-8-ethoxy-2-(1-methyl-2-oxabicyclo[2.1.1]hexan-4-yl)imidazo[1,2-a]pyrazine-6-carboxamide]	0.0032
COc1cc2nc(C3CCOCC3)cn2cc1C(=O)Nc1cccc(C)c1F [Example 110]	0.0082
CC(C)Oc1cc2nc([C@@]34CC[C@@](C)(C3)OC4)cn2cc1C(=O)Nc1cc(F)n(C)n1 (single isomer, unassigned) [Example 603]	0.0053
CC(C)Oc1cc2nc([C@]34CC[C@H](C3)OC4)cn2cc1C(=O)Nc1ccn(C)n1 (single isomer, unassigned) [Example 581]	0.0037
CC(C)Oc1cc2nc([C@@]34CC[C@@](C)(C3)OC4)cn2cc1C(=O)Nc1cccn(C(F)F)c1=O (single isomer, unassigned) [Example 624]	0.0002
COc1cc2nc(C3CCOCC3)cn2cc1C(=O)Nc1cccn(CC(F)(F)F)c1=O [Example 198]	0.0759
CC12CC(c3cn4cc(C(=O)Nc5ccn(C(F)F)n5)c(OCC5CC5)nc4n3)(CO1)C2 [Example 639, 7-(Cyclopropylmethoxy)-N-(1-(difluoromethyl)-1H-pyrazol-3-yl)-2-(1-methyl-2-oxabicyclo[2.1.1]hexan-4-yl)imidazo[1,2-a]pyrimidine-6-carboxamide]	0.0181
Cc1nc(C(=O)Nc2cccc(C(F)F)n2)cn2cc(C3CCOCC3)nc12 [Example 213]	0.0607
CC(C)Oc1cc2nc([C@]34CC[C@](C)(C3)OC4)cn2cc1C(=O)Nc1cccn(C(F)F)c1=O (single isomer, unassigned) [Example 625]	0.0003
COc1cc2nc(C3CCOCC3)cn2cc1C(=O)Nc1cccc(Cl)c1F [Example 114]	0.0153
CCOc1cc2nc([C@@H]3C[C@H]3F)cn2cc1C(=O)Nc1cccc(OC)n1 (single isomer, unassigned) [Example 67]	0.0397
CC12CC(c3cn4cc(C(=O)Nc5cnn6cccnc56)c(OC5CCC5)cc4n3)(CO1)C2 [Example 406, 7-Cyclobutoxy-2-(1-methyl-2-oxabicyclo[2.1.1]hexan-4-yl)-N-(pyrazolo[1,5-a]pyrimidin-3-yl)imidazo[1,2-a]pyridine-6-carboxamide]	0.0003
CC(C)Oc1cc2nc(C34CCC(C)(C3)OC4)cn2cc1C(=O)Nc1cccc(C(F)F)c1 (centres unmarked) [Example 514, N-(3-(difluoromethyl)phenyl)-7-isopropoxy-2-(1-methyl-2-oxabicyclo[2.2.1]heptan-4-yl)imidazo[1,2-a]pyridine-6-carboxamide]	0.0005
CCOc1nc(C(=O)Nc2cccnc2OC)cn2cc(C3CCOC3)nc12 (centres unmarked) [Example 273, 8-Ethoxy-N-(2-methoxypyridin-3-yl)-2-(tetrahydrofuran-3-yl)imidazo[1,2-a]pyrazine-6-carboxamide]	0.0047
CCn1cccc(NC(=O)c2cn3cc(C45CCC(C)(CC4)OC5)nc3cc2OC2CCC2)c1=O [Example 420, 7-Cyclobutoxy-N-(1-ethyl-2-oxo-1,2-dihydropyridin-3-yl)-2-(1-methyl-2-oxabicyclo[2.2.2]octan-4-yl)imidazo[1,2-a]pyridine-6-carboxamide]	0.0003

same assay, conditions: IRAK4 Biochemical Assay (1 mM ATP, 2 h) IC50 (μM), 1 mM ATP, 2 h, 100 pM IRAK4

Structure (SMILES)	IC50 [µM]
COc1ncccc1NC(=O)c1cn2cc(C34COC(C)(C3)C4)nc2cc1OC(F)F [Example 332, 7-(Difluoromethoxy)-N-(2-methoxypyridin-3-yl)-2-(1-methyl-2-oxabicyclo[2.1.1]hexan-4-yl)imidazo[1,2-a]pyridine-6-carboxamide trifluoroacetate]	0.0052
COc1nc(C(=O)Nc2cccc(C(F)F)n2)cn2cc(C3CCOCC3)nc12 [Example 206, N-[6-(difluoromethyl)-2-pyridyl]-8-methoxy-2-tetrahydropyran-4-ylimidazo[1,2-a]pyrazine-6-carboxamide trifluoroacetate]	0.0128
Cc1cnc2c(NC(=O)c3cn4cc(C56COC(C)(C5)C6)nc4c(F)c3OC(C)C)cnn2c1 [Example 292, 8-Fluoro-7-isopropoxy-2-(1-methyl-2-oxabicyclo[2.1.1]hexan-4-yl)-N-(6-methylpyrazolo[1,5-a]pyrimidin-3-yl)imidazo[1,2-a]pyridine-6-carboxamide trifluoroacetate]	0.0026
CC12CC(c3cn4cc(C(=O)Nc5cccn(C(F)F)c5=O)c(OCC5CC(F)(F)C5)cc4n3)(CO1)C2 [Example 448, 7-((3,3-Difluorocyclobutyl)methoxy)-N-(1-(difluoromethyl)-2-oxo-1,2-dihydropyridin-3-yl)-2-(1-methyl-2-oxabicyclo[2.1.1]hexan-4-yl)imidazo[1,2-a]pyridine-6-carboxamide]	0.0013
CC12CC(c3cn4cc(C(=O)Nc5cccc(C(F)F)n5)c(OC5CC5)nc4n3)(CO1)C2 [Example 312, 7-Cyclopropoxy-N-(6-(difluoromethyl)pyridin-2-yl)-2-(1-methyl-2-oxabicyclo[2.1.1]hexan-4-yl)imidazo[1,2-a]pyrimidine-6-carboxamide trifluoroacetate]	0.0021
